# Laboratory results as given in patent publication US12691124B2, “Methods of controlling and improving brain health” (ICAHN SCHOOL OF MEDICINE AT MOUNT SINAI, priority 2019, dated 2026).
# How the values were obtained:
# BRD2 or BRD4 = assay: ChIP sequencing, BRD2 or BRD4 promoter occupancy versus gene expression; format: cell-based, mouse
# Method: Chromatin Immunoprecipitation with Sequencing. Primary cortical neuronal cultures were washed once with PBS then fixed for 10 minutes with a 1% formaldehyde solution in PBS with protease inhibitors (Sigma #P8340) at room temperature. Fixation was quenched adding glycine to a final concentration of 0.125M (5 minutes, room temperature). 10e6 fixed cells were resuspended in 1 ml of lysis buffer (50 mM Hepes KOH, pH7.5, 140 mM NaCl, 1 mM EDTA, 10% glycerol, 0.5% NP-40, 0.25% Triton X-100) and 10 ul of protease inhibitor cocktail (PIC). Samples were rotated for 10 minutes at 4 degrees then spun at 1350 g at 4 C for 10 minutes. Pellets were resuspended in 1 ml of lysis buffer 2 (10 mM Tris-HCl pH8.0, 200 mM NaCl, 1 mM EDTA, 0.5 mM EGTA) and 10 ul PIC.). 5e6 nuclei were sonicated in lysis buffer 3 (10 mM Tris-HCl pH8.0, 100 mM NaCl, 1 mM EDTA, 0.5 mM EGTA, 0.1% Na-Deoxicholate, 0.5% N-Lauroylsarcosine) at 4 degrees for 5 cycles of 30 seconds ON/30 seconds OFF using the Diagenode bioruptor. After, 30 ul of 10% Triton-X100 was added to each sample and then spun for 15 minutes at 20,000 g at 4 degrees. Sonication efficiency was checked by running the samples on a 2% agarose gel to confirm enrichment for fragments from 200-500 bps.
# Streptavidin M-280 dynabeads were blocked with 0.5% BSA solution and coupled to 7 ug of antibody (Brd4 #Ab84778, Brd2 Bethyl #A302-583A, Pol2 Ser5 #Ab5408) for at least 8 hours at 4 degrees, rotating. Antibody-coupled beads were then added to sonicated chromatin (20e6 cells for Brd2/Brd4, 10e6 for Pol2) and incubated overnight at 4 degrees. After washing the IPs eight times with wash buffer (50 mM Hepes-KOH pH7.6, 100 mM LiCl, 1 mM EDTA, 1% NP-40, 0.7% Na-Deoxycholate) and once with TE buffer (10 mM Tris-HCl, 1 mM EDTA, 50 mM NaCl), Chromatin was eluted from magnetic beads in 200 ul elution buffer ([…] Tris-HCl pH8.0, 10 mM EDTA, 1% SDS) for 45 minutes at 65 degrees. Samples were de-crosslinked overnight at 65 degrees and proteins and RNA were removed by incubating with RNAse and proteinase k. Samples were purified using the Qiagen PCR purification kit according to the manufacturers protocol.
# Samples were end-repaired using the End-IT DNA End-Repair Kit (#ER0720). After 45 minutes incubation, samples were purified using the Qiagen PCR Clean up kit as described above. Samples were adenylated using a reaction mix (200 uM dATP, 1× Klenow buffer NEB2, Klenow Fragment (3′ to 5′ exo-), NEB M0212L) and incubating at 37 degrees for 30 minutes. After, samples were purified as above except using the Minelute columns to minimize sample loss. Adapters were ligated to samples using a reaction mix containing T4 DNA ligase buffer, Solexa adapter oligo mix and 1200 units of T4 DNA ligase. The samples were incubated according to the following PCR program: 1) 20 C for 15 min, 2) 4 C for 2 h, 3) 0.1 C/sec to 16 C, 4) 16 C for 20 min, 5) 0.1 C/sec to 4 C, 6) back to step 2 for 6 cycles. Samples were purified using the Minelute kit as described above. Samples were amplified using a reaction mix containing the Phusion HF buffer, 300 uM dNTP mix, 3% DMSO, diluted Solexa primers 1.0 and 2.0, and 1 unit of Phusion polymerase. Samples were amplified according to the following program: 1) 30 sec at 98 C, 2) 18 cycles of: 10 sec at 98 C, 30 sec at 65 C, 30 sec at 72 C, 3) 5 min 72 C. Prepared samples were then sequenced on the HiSeq 2000 platform by Rockefeller's Genomic Core Facility. Bioinformatic analysis was performed by the Shen Lab. Briefly, raw sequencing data was processed by using Illumina bcl2fastq2 Conversion Software v2.17. The ChIP-seq data was first checked for quality using the various metrics generated by FastQC. Raw sequencing reads were then aligned to the mouse mm9 genome using the default settings of Bowtie (v2.2.0)87. Only uniquely mapped reads were retained, and the alignments were subsequently filtered using the SAMtools package (v0.1.19)88 to remove duplicate reads. […]
# [1] = system: primary cortical neurons exposed to glutamate; assay: Glutamate excitotoxicity in primary cortical neurons; format: cell-based, mouse
# Method: LDH Assay. LDH activity was measured using the Pierce LDH Cytotoxicity Assay Kit. Culture media was incubated with an equal volume of LDH master mix and incubated for 30 minutes at room temperature in the dark. After, the same volume of stop reagent was added and the absorbance was measured at 490 and 680 nm. Maximum LDH measurements were obtained by adding lysis buffer to release the total amount of LDH in the sample. LDH release is calculated as a percent of the maximum.
# Propidium Iodide Assay. Propidium iodide (1 mg/ml, Life Technologies #P3566) was added to each culture well at a final concentration of 0.5 μg/ml. Cultures were incubated for 30 minutes at 37 degrees then washed with PBS. Cells were then fixed with 4% paraformaldehyde in PBS for 15 minutes at room temperature. After fixation, cells were washed with PBS and then mounted using mounting media containing DAPI.
# In addition to increasing longevity, rapamycin treatment protects neurons from toxic stimuli such as excessive glutamate. […] Because IBET858 increased neuronal lifespan to the same extent as rapamycin, it was hypothesized that BET inhibition could also induce a protective state in neurons. To test if IBET858 can prevent neuronal death, the neurons were exposed to excitotoxic levels of glutamate, a common in vitro assay that mirrors neuronal death observed in vivo after stroke or neurodegeneration. High levels of glutamate cause a strong influx of calcium into the neuron ultimately leading to necrosis followed by apoptosis.
# Neurons were treated with IBET858 for increasing durations (2 h, 24 h, 72 h or 1 week) before stimulation with an excitotoxic amount of glutamate (1 mM) on day 14 when mature synapses fully express glutamate receptors. Chronic but not acute BET inhibition increases neuronal survival in response to glutamate toxicity, as measured by the LDH assay. […] Therefore a 1 week treatment time point was used for all subsequent experiments.
structure (smiles),measurement,setting,value
CC(=O)N1c2ccc(-c3ccc(CN4CCCCC4)cc3)cc2[C@H](Nc2ccccc2)CC1C (stereo in doubt) [IBET858],displacement of BET proteins from the chromatin,BRD2 or BRD4,displaces all three BET proteins from the chromatin
same,down-regulated genes that are bound by Brd2 or Brd4,"BRD2 or BRD4; 1 week IBET858, 844/1391",61%
same,genes with increased promoter occupancy of BRD2 or BRD4 that are also transcriptionally upregulated,BRD2 or BRD4; 6 h IBET858,212 genes
same,genes with reduced promoter occupancy of BRD2 or BRD4 that are also transcriptionally downregulated,BRD2 or BRD4; 6 h IBET858,528 genes
same,down-regulated genes that are bound by Brd2 or Brd4,"BRD2 or BRD4; 12 h IBET858, 733/1158",63%
same,gene promoters with reduced BET binding,BRD2 or BRD4; short-term treatment 6 h,approximately 1000 gene promoters
same,"protection from excitotoxicity, IBET858 compared with rapamycin","[1]; 1 week IBET858 1 μM, Rapamycin 20 nM, 1 mM glutamate",as well as rapamycin
same,"cell death after glutamate exposure, propidium iodide","[1]; 1 week pretreatment, 1 mM glutamate",fewer neurons treated with IBET858 die
same,"excitotoxicity-induced neuronal death, LDH assay","[1]; 1 week pretreatment, 1 mM glutamate, day 14",almost completely prevents
same,"excitotoxicity-induced neuronal death, LDH assay","[1]; 72 h pretreatment, 1 mM glutamate",mild protective effect
same,"neuroprotective phenotype after washout, glutamate exposure","[1]; temporary pretreatment, wash out, 4 days on DMSO, 1 mM glutamate day 14",neuroprotective phenotype that is maintained even in the absence of IBET
